Test results: patent US8426405B2, “Thiazopyrimidinones and uses thereof” (priority 2008, dated 2013)

Columns and labels:
HIV integrase wild type = target: T1, HIV integrase wild type (Human immunodeficiency virus type 1 group M subtype B, UniProt P04585); assay: Strand transfer assay (enzyme assay), WT; assay type: biochemical, HIV-1
T1 construct: The integrase coding region was then subject to PCR and cloned into a bacterial expression vector; made in house
Text: (§1) HIV integrase was mutated within a shuttle vector (pGEM) containing the majority of the HIV-1 gag and pol sequence using site directed mutagenesis to generate integrase sequences that have been published as conferring resistance to published integrase inhibitors. These include, but are not limited to, mutations such as Q148K. The integrase coding region was then subject to PCR and cloned into a bacterial expression vector. The specific introduction of desired mutation(s) was confirmed by sequence analysis. Proteins were expressed, purified and used in strand transfer assays.
(§2) A strand transfer assay procedure similar to that published (Ovenden et al. Phytochemistry. 2004 December; 65(24):3255-9.) is used. Briefly, 400 ng of the enzyme, wild type or drug resistant mutant, is mixed with the compound to be tested and incubated with 30 nM substrate DNA. The substrate DNA is designed to mimic HIV DNA termini that has undergone 3′end processing, and consists of the annealed U5 LTR sequence oligonucleotides tagged with Digoxigenin (DIG; 5′-[…]-DIG-3′) or biotin (5′-Bio-[…]-3′) so that each substrate has either a DIG or Bio tag on opposite strands. Reactions are carried out for 1 hr at 37° C. Products generated as a result of strand transfer activity are bound to streptavidin plates and detected using anti-DIG-alkaline phosphatase conjugate and p-nitro phenyl phosphate substrate.

HIV integrase E92Q/N155H = target: T2, HIV integrase E92Q/N155H (Human immunodeficiency virus type 1 group M subtype B, UniProt P04585, E1239Q/N1302H); assay: Strand transfer assay (enzyme assay), E92Q/N155H; assay type: biochemical, HIV-1
T2 construct: The integrase coding region was then subject to PCR and cloned into a bacterial expression vector; made in house
Text: as §1, §2

[1] = target: T3, HIV integrase G140S/Q148H (Human immunodeficiency virus type 1 group M subtype B, UniProt P04585, G1287S/Q1295H); assay: Strand transfer assay (enzyme assay), G140S/Q148H; assay type: biochemical, HIV-1
T3 construct: The integrase coding region was then subject to PCR and cloned into a bacterial expression vector; made in house
Text: as §1, §2

HIV WT = assay: Phenosense (PhenoScreen) assay, WT; assay type: cell-based; conditions: wild type HIV, luciferase 48 h after infection
Text: (§3) Monogram Bioscience' PhenoScreen assay allows the evaluation of integrase inhibitors for activity against a variety of HIV variants. The assay uses virus generated from 2 DNA constructs; one containing the HIV LTR, gag and pol regions, as well as a luciferase reporter gene in place of the viral envelope genes, and a second DNA construct containing the amphotrophic murine leukemia virus (A-MLV) envelope gene required to pseudotype virions and render them capable of entry into a target cell. Viruses generated using these constructs by transfection into a producer cell line such as 293T are capable of one-round of infection only. Successful integration events are directly proportional to the levels of luciferase expression 48 h after infection.
(§4) The viral variants chosen by Avexa Ltd to screen their in-house integration inhibitors against consist of mutations within the viral integrase enzyme known to confer resistance to a number of known integration inhibitors published in the literature. In particular, the viral variants containing the Q148H/G140S double mutation in integrase, and the N155H/E92Q double mutation in integrase, represent two of the more common viruses identified to arise in patients that are failing treatment with Isentress (Raltegravir, MK-0518).

[2] = tested on: HIV variant Y143R in integrase; assay: Phenosense (PhenoScreen) assay, Y143R; assay type: cell-based
Text: as §3, §4

[3] = tested on: HIV variant N155H/E92Q double mutation in integrase; assay: Phenosense (PhenoScreen) assay, E92Q N155H; assay type: cell-based
Text: as §3, §4

[4] = tested on: HIV variant Q148H/G140S double mutation in integrase; assay: Phenosense (PhenoScreen) assay, G140S Q148H; assay type: cell-based
Text: as §3, §4

[5] = tested on: HIV variant T125K F121Y in integrase; assay: Phenosense (PhenoScreen) assay, T125K F121Y; assay type: cell-based
Text: as §3, §4

[6] = tested on: HIV variant T661 S153Y in integrase; assay: Phenosense (PhenoScreen) assay, T661 S153Y; assay type: cell-based
Text: as §3, §4

SMILES: Cc1cn2c(=O)c(O)c(-c3ncc(Cc4ccc(Cl)c(Cl)c4)s3)nc2s1
- Enzyme WT (HIV integrase wild type): +++ (+++ indicates value between 0.001 μM and 1 μM)
- Enzyme E92Q/N155H (HIV integrase E92Q/N155H): ++ (++ indicates value between 1 μM and 10 μM)
- Enzyme G140S/Q148H [1]: +++ (+++ indicates value between 0.001 μM and 1 μM)

SMILES: Cc1cn2c(=O)c(O)c(-c3ncc(Cc4ccc(F)c(Cl)c4)s3)nc2s1
- Enzyme WT (HIV integrase wild type): +++ (+++ indicates value between 0.001 μM and 1 μM)
- Enzyme E92Q/N155H (HIV integrase E92Q/N155H): ++ (++ indicates value between 1 μM and 10 μM)
- Enzyme G140S/Q148H [1]: ++ (++ indicates value between 1 μM and 10 μM)

SMILES: Cc1cn2c(=O)c(O)c(-c3ncc(Cc4ccc(F)cc4)s3)nc2s1
- Enzyme E92Q/N155H (HIV integrase E92Q/N155H): +++ (+++ indicates value between 0.001 μM and 1 μM)

SMILES: Cc1cn2c(=O)c(O)c(-c3ncc(Cc4ccc(Cl)cc4)s3)nc2s1
- Enzyme WT (HIV integrase wild type): +++ (+++ indicates value between 0.001 μM and 1 μM)
- Enzyme E92Q/N155H (HIV integrase E92Q/N155H): ++ (++ indicates value between 1 μM and 10 μM)
- Enzyme G140S/Q148H [1]: + (+indicates value greater than 10 μM)

SMILES: Cc1cn2c(=O)c(O)c(C(=O)NCc3ccc(Cl)c(Cl)c3)nc2s1
- Enzyme WT (HIV integrase wild type): +++ (+++ indicates value between 0.001 μM and 1 μM)

SMILES: Cc1cn2c(=O)c(O)c(C(=O)NCc3ccc(F)cc3)nc2s1
- Enzyme WT (HIV integrase wild type): ++ (++ indicates value between 1 μM and 10 μM)

SMILES: CN1CCN(Cc2cn3c(=O)c(O)c(C(=O)NCc4ccc(Cl)c(Cl)c4)nc3s2)CC1
- Phenosense assay WT (HIV WT): +++ (+++ indicates value between 0.001 μM and 1 μM)
- Phenosense assay Y143R [2]: +++ (+++ indicates value between 0.001 μM and 1 μM)
- Phenosense assay E92Q N155H [3]: + (+indicates value greater than 10 μM)
- Phenosense assay G140S Q148H [4]: + (+indicates value greater than 10 μM)
- Phenosense assay T125K F121Y [5]: + (+indicates value greater than 10 μM)
- Phenosense assay T661 S153Y [6]: ++ (++ indicates value between 1 μM and 10 μM)
- Enzyme WT (HIV integrase wild type): +++ (+++ indicates value between 0.001 μM and 1 μM)

SMILES: O=C(NCc1ccc(Cl)c(Cl)c1)c1nc2sc(CN3CCOCC3)cn2c(=O)c1O
- Phenosense assay WT (HIV WT): +++ (+++ indicates value between 0.001 μM and 1 μM)
- Phenosense assay Y143R [2]: +++ (+++ indicates value between 0.001 μM and 1 μM)
- Phenosense assay E92Q N155H [3]: + (+indicates value greater than 10 μM)
- Phenosense assay G140S Q148H [4]: + (+indicates value greater than 10 μM)
- Phenosense assay T125K F121Y [5]: + (+indicates value greater than 10 μM)
- Phenosense assay T661 S153Y [6]: + (+indicates value greater than 10 μM)
- Enzyme WT (HIV integrase wild type): +++ (+++ indicates value between 0.001 μM and 1 μM)

SMILES: O=C(NCc1ccc(F)cc1)c1nc2sc(CN3CCOCC3)cn2c(=O)c1O
- Phenosense assay WT (HIV WT): ++ (++ indicates value between 1 μM and 10 μM)
- Phenosense assay Y143R [2]: ++ (++ indicates value between 1 μM and 10 μM)
- Phenosense assay E92Q N155H [3]: + (+indicates value greater than 10 μM)
- Phenosense assay G140S Q148H [4]: + (+indicates value greater than 10 μM)
- Phenosense assay T125K F121Y [5]: + (+indicates value greater than 10 μM)
- Phenosense assay T661 S153Y [6]: + (+indicates value greater than 10 μM)
- Enzyme WT (HIV integrase wild type): ++ (++ indicates value between 1 μM and 10 μM)

SMILES: Cc1csc2nc(C(=O)NCc3ccc(Cl)c(Cl)c3)c(O)c(=O)n12
- Phenosense assay WT (HIV WT): +++ (+++ indicates value between 0.001 μM and 1 μM)
- Phenosense assay Y143R [2]: +++ (+++ indicates value between 0.001 μM and 1 μM)
- Phenosense assay E92Q N155H [3]: + (+indicates value greater than 10 μM)
- Phenosense assay G140S Q148H [4]: + (+indicates value greater than 10 μM)
- Phenosense assay T125K F121Y [5]: + (+indicates value greater than 10 μM)
- Phenosense assay T661 S153Y [6]: + (+indicates value greater than 10 μM)
- Enzyme WT (HIV integrase wild type): +++ (+++ indicates value between 0.001 μM and 1 μM)

SMILES: CC(C)c1cn2c(=O)c(O)c(C(=O)NCc3ccc(Cl)c(Cl)c3)nc2s1
- Phenosense assay WT (HIV WT): +++ (+++ indicates value between 0.001 μM and 1 μM)
- Phenosense assay Y143R [2]: +++ (+++ indicates value between 0.001 μM and 1 μM)
- Phenosense assay E92Q N155H [3]: + (+indicates value greater than 10 μM)
- Phenosense assay G140S Q148H [4]: + (+indicates value greater than 10 μM)
- Phenosense assay T125K F121Y [5]: + (+indicates value greater than 10 μM)
- Phenosense assay T661 S153Y [6]: ++ (++ indicates value between 1 μM and 10 μM)
- Enzyme WT (HIV integrase wild type): +++ (+++ indicates value between 0.001 μM and 1 μM)
